Like-named read-outs stand apart in the source and are kept apart here.
Experiments:
intestinal polyps = assay: mouse model of adenomatous polyposis, prevention and treatment of intestinal polyps; type: in vivo; settings: COX 125 ppm in feed ad libitum
Procedure: (§1) 5-methyl-2-(2′-chloro-6′-fluoro-anilino)-phenyl acetic acid (“COX”) and (+)-discodermolide (“disco”) are tested as single agents and together as combination therapy in a mouse model of adenomatous polyposis for the prevention and treatment of intestinal polyps. (+)-Discodermolide is administered once intravenously to the mice at 15 mg/kg as a solution in 16.7% Chremophor EI, 8.3% ethanol, and 75% D5W. COX is administered in the feed mix at a concentration of 125 ppm.
(§2) 5-methyl-2-(2′-chloro-6′-fluoro-anilino)-phenyl acetic acid (“COX”) and (R)-4-(4-((1-phenylethyl)amino)-7H-pyrrolo(2,3-d)pyrimidin-6-yl)-phenol (“EGFR”) are tested as single agents and together as combination therapy in a mouse model of adenomatous polyposis for the prevention and treatment of intestinal polyps. EGFR is administered to the mice orally at 50 mg/kg, as a suspension in 0.5% carboxymethylcellulose, b.i.d., 5 days a week for three weeks. COX is administered in the feed mix at a concentration of 125 ppm.
(§3) 5-methyl-2-(2′-chloro-6′-fluoro-anilino)-phenyl acetic acid (“COX”) and 1-(4-chloroanilino)-4-(4-pyridylmethyl)phthalazine (“VEGFR”) are tested as single agents and together as combination therapy in a mouse model of adenomatous polyposis for the prevention and treatment of intestinal polyps. VEGFR is administered to the mice orally at 100 mg/kg, 5 times a week for three weeks. COX is administered in the feed mix at a concentration of 125 ppm.

[1] = COX 125 ppm in feed ad libitum
Procedure: as §1, §2, §3

[2] = test system: DU 145 prostate tumor cell line; assay: mouse model of prostate cancer, efficacy against established tumors; type: in vivo; settings: Example 4; DU 145 prostate tumors in mice; COX 125 ppm in feed; VEGF 100 mg/kg p.o. q.d. 5x/week for three weeks
Procedure: (§4) 5-methyl-2-(2′-chloro-6′-fluoro-anilino)-phenyl acetic acid (“COX”) and 1-(4-chloroanilino)-4-(4-pyridylmethyl)phthalazine (“VEGFR”) are tested as single agents and together as combination therapy in a mouse model of prostrate cancer (orthoscopically implanted DU 145 prostate tumor cell line) for efficacy against established tumors. VEGFR is administered to the mice orally at 100 mg/kg, 5 times a week for three weeks, as a suspension in 0.5% microcrystalline cellulose, 0.1% Tween 80 in water. COX is administered in the feed mix at a concentration of 125 ppm.

[3] = Example 4; DU 145 prostate tumors in mice; COX 125 ppm in feed; VEGF 100 mg/kg p.o. q.d. 5x/week for three weeks
Procedure: as §4

[4] = test system: tumor vascular permeability; settings: studies in humans; cited from earlier work
[5] = Example 1, first experiment, disco 15 mg/kg i.v. once
[6] = Example 1, second (duplicate) experiment, disco 15 mg/kg i.v. once
[7] = Example 2, first experiment, EGFR 50 mg/kg p.o. b.i.d. 5x/week for three weeks
[8] = Example 2, second (duplicate) experiment, EGFR 50 mg/kg p.o. b.i.d. 5x/week for three weeks
[9] = Example 3, first experiment, VEGF 100 mg/kg p.o. 5x/week for three weeks
[10] = Example 3, second (duplicate) experiment, VEGF 100 mg/kg p.o. 5x/week for three weeks

Molecule | % T/C (polyps) (intestinal polyps; [5]) [%] | Mean Intestinal Polyp Count (# ± SEM) (intestinal polyps; [5]) | % T/C (polyps) (intestinal polyps; [6]) [%] | Mean Intestinal Polyp Count (# ± SEM) (intestinal polyps; [6]) | Dead/Total [1, 5] | Dead/Total [1, 6] | % T/C (polyps) (intestinal polyps; [7]) [%] | Mean Intestinal Polyp Count (# ± SEM) (intestinal polyps; [7]) | % T/C (polyps) (intestinal polyps; [8]) [%] | Mean Intestinal Polyp Count (# ± SEM) (intestinal polyps; [8]) | Dead/Total [1, 7] | Dead/Total [1, 8] | % T/C (tumors) [2] [%] | Mean Tumor Weight (mg ± SEM) [2] [mg] | % T/C (polyps) (intestinal polyps; [9]) [%] | Mean Intestinal Polyp Count (# ± SEM) (intestinal polyps; [9]) | % T/C (polyps) (intestinal polyps; [10]) [%] | Mean Intestinal Polyp Count (# ± SEM) (intestinal polyps; [10]) | Dead/Total [3] | Dead/Total [1, 9] | other results
(+)-discodermolide | 56 | 15 ± 0.2 # | 64 | 15 ± 0.22 # | 0/7 | 0/7 | – | – | – | – | – | – | – | – | – | – | – | – | – | – | % Body Wt. Change [1, 5]: +0.9 ± 0.1%; % Body Wt. Change [1, 6]: +4.0 ± 0.12%
C[C@@H](Nc1ncnc2[nH]c(-c3ccc(O)cc3)cc12)c1ccccc1 [EGFR, (R)-4-(4-((1-phenylethyl)amino)-7H-pyrrolo(2,3-d)pyrimidin-6-yl)-phenol] | – | – | – | – | – | – | 37 | 8 ± 0.2 # | 27 | 9 ± 0.3 # | 0/7 | 0/7 | – | – | – | – | – | – | – | – | –
Clc1ccc(Nc2nnc(Cc3ccncc3)c3ccccc23)cc1 [VEGF, 1-(4-chloroanilino)-4-(4-pyridylmethyl)phthalazine] | – | – | – | – | – | – | – | – | – | – | – | – | 57 | 243 ± 37 | 57 | 15 ± 0.48 # | 60 | 17 ± 0.19 # | 1/12 | 0/6 | Dead/Total [1, 10]: 0/7; tolerability [4]: well tolerated; tumor vascular permeability [4]: reduce tumor vascular permeability
Cc1ccc(Nc2c(F)cccc2Cl)c(CC(=O)O)c1 [COX, 5-methyl-2-(2′-chloro-6′-fluoro-anilino)-phenyl acetic acid] | 56 | 15 ± 0.4 # | 57 | 13 ± 0.2 # | 0/7 | 0/7 | 43 | 9 ± 0.4 # | 36 | 12 ± 0.9 # | 0/7 | 0/7 | 80 | 343 ± 52 | 44 | 12 ± 0.22 # | 44 | 13 ± 0.18 # | 1/12 | 0/7 | Dead/Total [1, 10]: 0/7

From patent US20110046190A1, “COMBINATIONS COMPRISING A SELECTIVE CYCLOOXYGENASE-2 INHIBITOR” (priority 2001, published 2011)
